The values that follow come from ChEMBL document CHEMBL5316318, “Structural Modification and Pharmacological Evaluation of Substituted Quinoline-5,8-diones as Potent NSD2 Inhibitors” (J Med Chem, 2023).

Molecules are shown by their SMILES. Calls of active or inactive are those of the source. The calls are words filed in the database; no cut-off is given here.

The subject of one test is MOLT-4. The test is described as follows: Antiproliferative activity against human MOLT-4 cells harboring wild type NSD2 assessed as inhibition of cell growth incubated for 6 days by CCK-8 assay. It counts as functional, cell-based. The conditions noted are these: MOLT-4, 144 h. A general note: Formazan colour is commonly taken as a measure of viable cells.
Test [1] in a line: Antiproliferative activity against human MINO cells assessed as inhibition of cell growth incubated for 6 days by CCK-8 assay. The note with it: 144 h. The class given is functional, cell-based.
In test [2] the test system is KMS-11. The test is described as follows: Induction of apoptosis in human KMS-11 cells assessed as early apoptotic cells at 0.8 uM incubated for 72 hrs by Annexin V-FITC/PI staining based flow cytometry analysis (reference value: 3.96%). It counts as functional. On the technique in general: A flow cytometer gives signals particle by particle.
In test [3] the test system is KMS-11. Description: Induction of apoptosis in human KMS-11 cells assessed as early apoptotic cells at 0.5 uM incubated for 72 hrs by Annexin V-FITC/PI staining based flow cytometry analysis (reference value: 3.96%). It counts as functional.
Test [4] has as its target Histone-lysine N-methyltransferase EZH2 (Homo sapiens, UniProt Q15910). The test is described as follows: Inhibition of EZH2 (unknown origin) using SAM as substrate preincubated for 10 mins followed by substrate addition and measured after 4 hrs by HTRF analysis. A general note: TR-FRET usually uses a lanthanide donor and a delayed reading to cut background.
A further test has as its system THP-1. The test is described as follows: Antiproliferative activity against human THP-1 cells harboring wild type NSD2 assessed as inhibition of cell growth incubated for 6 days by CCK-8 assay. The class given is functional, cell-based. The note with it: THP-1, 144 h.
The target of test [5] is Histone-lysine N-methyltransferase NSD2 (Homo sapiens) (UniProt O96028). The test is described as follows: Binding affinity to human recombinant NSD2 (941 to 1240 residues) at 200 uM by saturation transfer difference based NMR analysis.
Sequence of Histone-lysine N-methyltransferase NSD2 (Homo sapiens) (O96028 whole entry, the tested form may be a part): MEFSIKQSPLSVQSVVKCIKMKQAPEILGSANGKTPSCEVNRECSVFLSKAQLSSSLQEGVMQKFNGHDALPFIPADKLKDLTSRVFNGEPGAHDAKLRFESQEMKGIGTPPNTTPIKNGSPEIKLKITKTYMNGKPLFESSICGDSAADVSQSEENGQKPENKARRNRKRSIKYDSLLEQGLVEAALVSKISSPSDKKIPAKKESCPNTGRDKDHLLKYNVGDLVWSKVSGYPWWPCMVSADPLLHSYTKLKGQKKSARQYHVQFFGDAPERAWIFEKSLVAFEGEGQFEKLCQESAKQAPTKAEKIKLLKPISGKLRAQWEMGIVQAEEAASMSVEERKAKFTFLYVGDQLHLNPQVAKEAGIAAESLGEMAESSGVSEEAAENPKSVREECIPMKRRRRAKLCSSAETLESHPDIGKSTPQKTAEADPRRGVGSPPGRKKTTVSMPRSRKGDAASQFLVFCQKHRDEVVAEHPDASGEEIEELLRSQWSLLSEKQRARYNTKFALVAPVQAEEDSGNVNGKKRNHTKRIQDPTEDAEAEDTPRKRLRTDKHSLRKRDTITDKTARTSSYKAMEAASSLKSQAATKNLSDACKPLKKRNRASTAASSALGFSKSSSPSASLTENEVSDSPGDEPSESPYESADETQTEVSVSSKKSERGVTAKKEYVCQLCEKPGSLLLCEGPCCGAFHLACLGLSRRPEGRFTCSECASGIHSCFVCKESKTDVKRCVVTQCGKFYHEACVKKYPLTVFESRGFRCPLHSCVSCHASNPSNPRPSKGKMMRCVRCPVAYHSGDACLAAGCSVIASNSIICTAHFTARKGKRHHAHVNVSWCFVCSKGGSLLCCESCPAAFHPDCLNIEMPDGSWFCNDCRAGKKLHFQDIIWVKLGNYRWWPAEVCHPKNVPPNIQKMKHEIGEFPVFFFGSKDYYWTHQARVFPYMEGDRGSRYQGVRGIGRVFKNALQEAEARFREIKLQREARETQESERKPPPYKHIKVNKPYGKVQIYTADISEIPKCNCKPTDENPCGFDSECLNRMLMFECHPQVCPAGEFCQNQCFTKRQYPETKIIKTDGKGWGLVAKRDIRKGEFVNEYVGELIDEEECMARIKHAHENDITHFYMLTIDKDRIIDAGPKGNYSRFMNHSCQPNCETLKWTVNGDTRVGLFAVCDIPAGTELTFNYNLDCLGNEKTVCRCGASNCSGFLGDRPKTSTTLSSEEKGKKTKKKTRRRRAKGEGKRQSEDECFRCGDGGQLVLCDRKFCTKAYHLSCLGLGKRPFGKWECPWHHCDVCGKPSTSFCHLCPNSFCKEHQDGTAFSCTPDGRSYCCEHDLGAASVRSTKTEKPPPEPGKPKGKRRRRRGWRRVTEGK
The target of test [6] is Histone-lysine N-methyltransferase NSD3 (Homo sapiens, UniProt Q9BZ95). The test is described as follows: Inhibition of NSD3 (unknown origin).
Sequence of Histone-lysine N-methyltransferase NSD3 (Q9BZ95 whole entry): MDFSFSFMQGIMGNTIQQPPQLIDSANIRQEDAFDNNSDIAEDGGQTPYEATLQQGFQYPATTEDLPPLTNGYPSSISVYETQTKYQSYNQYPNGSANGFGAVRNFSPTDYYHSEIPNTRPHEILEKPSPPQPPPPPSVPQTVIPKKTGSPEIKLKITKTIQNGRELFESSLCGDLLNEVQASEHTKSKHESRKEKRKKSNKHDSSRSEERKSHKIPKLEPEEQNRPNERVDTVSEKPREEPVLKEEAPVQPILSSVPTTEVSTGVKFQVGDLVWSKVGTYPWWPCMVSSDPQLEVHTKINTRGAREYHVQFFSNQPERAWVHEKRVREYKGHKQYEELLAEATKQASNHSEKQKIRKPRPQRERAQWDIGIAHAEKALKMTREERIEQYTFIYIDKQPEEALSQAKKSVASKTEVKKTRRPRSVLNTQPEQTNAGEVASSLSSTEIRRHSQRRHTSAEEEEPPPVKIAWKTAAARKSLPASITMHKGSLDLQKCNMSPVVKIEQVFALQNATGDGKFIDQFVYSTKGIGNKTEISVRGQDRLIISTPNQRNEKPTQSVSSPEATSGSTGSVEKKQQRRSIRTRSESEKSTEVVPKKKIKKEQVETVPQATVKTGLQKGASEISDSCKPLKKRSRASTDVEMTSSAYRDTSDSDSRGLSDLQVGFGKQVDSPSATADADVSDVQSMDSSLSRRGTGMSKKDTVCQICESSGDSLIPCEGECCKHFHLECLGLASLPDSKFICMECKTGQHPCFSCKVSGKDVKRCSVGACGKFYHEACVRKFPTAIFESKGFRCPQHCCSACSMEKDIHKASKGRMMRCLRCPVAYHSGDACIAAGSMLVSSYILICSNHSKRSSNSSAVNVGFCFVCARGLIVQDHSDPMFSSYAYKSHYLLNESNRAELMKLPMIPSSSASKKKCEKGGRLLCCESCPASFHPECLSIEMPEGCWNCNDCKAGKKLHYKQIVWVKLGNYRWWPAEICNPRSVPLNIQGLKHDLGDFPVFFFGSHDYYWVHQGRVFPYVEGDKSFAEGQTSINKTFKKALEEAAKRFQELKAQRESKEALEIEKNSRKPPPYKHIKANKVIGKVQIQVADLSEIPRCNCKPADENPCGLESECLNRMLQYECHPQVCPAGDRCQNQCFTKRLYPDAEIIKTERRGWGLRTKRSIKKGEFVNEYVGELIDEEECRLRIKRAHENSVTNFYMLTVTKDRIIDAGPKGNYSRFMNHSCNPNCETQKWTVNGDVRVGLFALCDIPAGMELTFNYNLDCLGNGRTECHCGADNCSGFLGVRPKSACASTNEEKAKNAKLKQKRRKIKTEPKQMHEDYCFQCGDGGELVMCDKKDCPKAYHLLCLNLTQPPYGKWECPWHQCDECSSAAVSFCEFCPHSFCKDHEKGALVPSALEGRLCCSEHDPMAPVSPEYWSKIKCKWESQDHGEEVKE

Sequence of Histone-lysine N-methyltransferase EZH2 (Q15910 whole entry): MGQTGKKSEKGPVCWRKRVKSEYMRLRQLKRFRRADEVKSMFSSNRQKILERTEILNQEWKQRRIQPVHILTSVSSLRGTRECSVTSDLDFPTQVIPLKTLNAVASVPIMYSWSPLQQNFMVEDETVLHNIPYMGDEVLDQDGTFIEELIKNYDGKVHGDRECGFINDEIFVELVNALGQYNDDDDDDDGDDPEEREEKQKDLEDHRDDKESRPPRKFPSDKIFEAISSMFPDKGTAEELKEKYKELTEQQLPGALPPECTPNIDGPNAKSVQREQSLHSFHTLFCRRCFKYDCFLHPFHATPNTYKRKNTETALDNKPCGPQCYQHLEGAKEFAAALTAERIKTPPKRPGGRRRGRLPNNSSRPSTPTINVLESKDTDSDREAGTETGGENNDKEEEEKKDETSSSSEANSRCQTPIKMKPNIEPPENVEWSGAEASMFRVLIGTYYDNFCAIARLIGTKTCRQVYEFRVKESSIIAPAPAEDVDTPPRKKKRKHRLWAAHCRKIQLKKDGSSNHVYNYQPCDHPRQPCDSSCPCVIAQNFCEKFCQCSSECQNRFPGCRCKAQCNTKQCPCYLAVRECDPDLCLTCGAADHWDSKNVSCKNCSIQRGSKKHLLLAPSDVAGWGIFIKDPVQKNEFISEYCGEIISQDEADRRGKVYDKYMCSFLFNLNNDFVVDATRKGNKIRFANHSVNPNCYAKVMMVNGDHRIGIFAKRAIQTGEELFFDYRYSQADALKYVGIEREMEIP

Consider `CC#CC(=O)NC12CC(NC3=C(Cl)C(=O)c4ncccc4C3=O)(C1)C2`, for which the IC50 (commonly the concentration that inhibits the measured activity by half) in the test on MOLT-4 is 1.23 µM; in test [1] it was 9.9 µM; in test [4], 0.25 µM; with THP-1, 2.64 µM; in test [6], 0.75 µM. The Activity in the test on KMS-11 [2] is recorded as 19.3%; in the test with KMS-11 [3], 14.1%. In addition, the result in test [5] was Active.
